“Also recorded” adds a separate entry of the source.
Experiments:
EEG power = assay: Quantitative electroencephalography (qEEG); type: in vivo, human (healthy volunteers)
Method: (§1) A clinical study was developed to evaluate safety, tolerability, pharmacokinetics, and pharmacodynamics of Compound 1 at plasma steady-state in 40 healthy human volunteers. Compound 1 (provided as Compound 1 phosphate) was administered to participants as multiple ascending doses of 0.5 mg (N=6), 1.0 mg (N=6), 1.5 mg (N=6), 2.0 mg (N=6), or 5.0 mg (N=6) once daily (QD) for 12 days.
Pharmacodynamic analyses included the NEUROCART® assessments, cognitive assessments Visual Verbal Learning Task (VVLT), and quantitative electroencephalography (qEEG). All PD analyses were based on the PD Analysis Set. For all PD endpoints, the baseline was calculated as average of the Day −1 measurements.
NEUROCART®, VVLT, and qEEG assessments were listed and summarized (absolute and change from baseline) using descriptive statistics at baseline and at each post-baseline time point. To establish whether significant treatment effects could be detected on the repeatedly measured NEUROCART® parameters, each parameter was analyzed with a mixed model analysis of covariance (ANCOVA) with treatment, time, and treatment by time as fixed factors, participant as a random factor, and the (average) baseline measurement as a covariate.

sleep stages = assay: Sleep-stage analysis in wirelessly implanted rats; conditions: Lorazepam 1 mg/kg IP
alertness/sedation = assay: MOAA/S (Modified Observer's Assessment Alertness/Sedation); type: in vivo, human (healthy volunteers)
Method: as §1
Safety and tolerability of Compound 1 were assessed through listings and summaries by Compound 1 dose versus placebo (observed and change from baseline where applicable) for the following measures: treatment-emergent adverse events (TEAEs), clinical laboratory evaluation, vital signs, electrocardiogram, physical examination, pregnancy test, C-SSRS, and MOAA/S (Modified Observer's Assessment Alertness/Sedation). Continuous safety data were summarized with descriptive statistics (n, arithmetic mean, standard deviation (SD), median, minimum, and maximum) by dose level. Categorical safety data were summarized with incidence counts and percentages by dose level.
No clear difference from placebo in sedation across ascending Cohorts according to objective MOAA/S (Modified Observer's Assessment Alertness/Sedation) scoring was observed. A decrease in the MOAA/S score for alertness/sedation indicates impaired participant alertness and increased sedation as objectively determined by a clinician. […] For Compound 1 5.0 mg, a MOAA/S score of 2 (“Responds only after mild prodding or shaking”) was assessed for 1 participant. For the other participants in the Compound 1 5.0 mg Cohort and all other Cohorts, MOAA/S scores were above 3 indicating no difference from placebo in sedation across ascending Cohorts.

[1] = system: anxiety (elevated plus maze); assay: Elevated plus maze (EPM)

In the case of CC(C)(O)c1cnn2c(-c3ccc(F)c(-c4c(F)cccc4C#N)c3)cnc2n1 [Compound 1, 2′,6-difluoro-5′-(3-(2-hydroxypropan-2-yl)imidazo[1,2-b][1,2,4]triazin-7-yl)-[1,1′-biphenyl]-2-carbonitrile], the “EEG gamma-power Pz-O2 (eyes open)” value (EEG power; any dose level) is reported as “No treatment effect on Pz-O2 (eyes open) for any dose level”, the “EEG beta-power Pz-O1 or Pz-O2 (eyes open and closed)” value (EEG power; any dose, Day 1 or Day 12) is reported as “No treatment effect on Pz-O1 or Pz-O2 (eyes open and eyes dosed) at any dose on Day 1 or Day 12” and the “EEG alpha-power Fz-Cz (eyes closed)” value (EEG power; dose and day in value) is reported as “Significant decrease in Fz-Cz (eyes dosed) at 1.5 mg, 2.0 mg, and 5.0 mg on Day 12”. The “EEG alpha-power Fz-Cz (eyes open)” value (EEG power; dose and day in value) was “Significant decrease in Fz-Cz (eyes open) at 1.5 mg on Day 1 and at 1.5 mg, 2.0 mg, and 5.0 mg on Day 12”, the “EEG alpha-power Pz-O1 (eyes closed)” value (EEG power; dose and day in value) was “Significant decrease in Pz-O1 (eyes closed) at 1.5 mg on Day 1 and at 1.5 mg, 2.0 mg, and 5.0 mg on Day 12” and the “EEG alpha-power Pz-O1 (eyes open)” value (EEG power; dose and day in value) was “Significant decrease in Pz-O1 (eyes open) at 1.5 mg, 2.0 mg, and 5.0 mg on Day 12”. For the same compound, the “EEG alpha-power Pz-O2 (eyes closed)” value (EEG power; dose and day in value) was “Significant decrease in Pz-O2 (eyes dosed) at 1.5 mg, 2.0 mg, and 5.0 mg on Day 12”, the “EEG alpha-power Pz-O2 (eyes open)” value (EEG power; dose and day in value) was “Significant decrease in Pz-O2 (eyes open) at 1.5 mg, 2.0 mg, and 5.0 mg on Day 12” and the “EEG beta-power Fz-Cz (eyes closed)” value (EEG power; dose and day in value) was “Significant increase in Fz-Cz (eyes closed) at 2.0 mg and 5.0 mg on Day 1 but at none of the doses on Day 12”. The “EEG beta-power Fz-Cz (eyes open)” value (EEG power; dose and day in value) was “Significant increase in Fz-Cz (eyes open) at 2.0 mg and 5.0 mg on Day 1 and at 0.5 mg, 2.0 mg, and 5.0 mg on Day 12”, the “EEG delta-power Fz-Cz (eyes closed)” value (EEG power; dose and day in value) was “Significant decrease in Fz-Cz (eyes closed) at all dose levels on Day 12” and the “EEG delta-power Fz-Cz (eyes open)” value (EEG power; dose and day in value) was “Significant decrease in Fz-Cz (eyes open) only at 1.0 mg on Day 12”. For the same compound, the “EEG delta-power Pz-O1 (eyes closed)” value (EEG power; dose and day in value) was “Significant decrease in Pz-O1 (eyes closed) at 1.0 mg, 1.5 mg, 2.0 mg, and 5.0 mg on Day 12”, the “EEG delta-power Pz-O1 and Pz-O2 (eyes open)” value (EEG power; dose and day in value) was “Significant decrease in Pz-O1 and Pz-O2 (eyes open) at 1.5 mg, 2.0 mg, and 5.0 mg on Day 12” and the “EEG delta-power Pz-O2 (eyes closed)” value (EEG power; dose and day in value) was “Significant decrease in Pz-O2 (eyes closed) at all dose levels on Day 12”. The “EEG gamma-power Fz-Cz (eyes closed and eyes open)” value (EEG power; dose and day in value) was “Significant increase in Fz-Cz (eyes closed and eyes open) at 2.0 mg on Day 1 and at 2.0 mg and 5.0 mg on Day 12”, the “EEG gamma-power Pz-O1 (eyes closed and eyes open)” value (EEG power; dose and day in value) was “Significant decrease in Pz-O1 (eyes dosed and eyes open) at 1.5 mg, 2.0 mg, and 5.0 mg on Day 1” and the “EEG gamma-power Pz-O2 (eyes closed)” value (EEG power; dose and day in value) was “No treatment effect on Pz-O2 (eyes closed) for any dose level except for 5.0 mg on Day 12”. The “EEG theta-power Fz-Cz (eyes closed and eyes open)” value (EEG power; dose and day in value) was “Significant decrease in Fz-Cz (eyes closed and eyes open) at 1.0 mg, 1.5 mg, 2.0 mg, and 5.0 mg on Day 12”, the “EEG theta-power Pz-O1 and Pz-O2 (eyes closed and eyes open)” value (EEG power; dose and day in value) was “Significant decrease in Pz-O1 and Pz-O2 (eyes closed and eyes open) at 1.5 mg, 2.0 mg, and 5.0 mg on Day 12” and the “most consistent effects on qEEG” value (EEG power; doses >1.5 mg, Day 12) was “decreased alpha- and theta-power on Day 12 that were suggestive of dose- or concentration-dependence and target engagement, but the increased beta-power on Day 12 did not suggest dose- or concentration-dependence; also recorded: decreased alpha- and theta-power, and increased beta-power”. For the same compound, the NREM onset (sleep stages; Compound 1 1 mg/kg PO) was “did not change NREM onset; also recorded: does not decrease time to Non-REM onset”, the “Active Wake” value (sleep stages; Compound 1 PO) was “decreased Active Wake” and the NREM (sleep stages; Compound 1 PO) was “increased NREM”. The “Quiet Wake” value (sleep stages; Compound 1 PO) was “only Compound 1 decreased Quiet Wake”, the MOAA/S score (alertness/sedation; 5.0 mg, 1 participant) was 2 and the “sedation versus placebo by MOAA/S” value (alertness/sedation; 0.5-5.0 mg oral QD 12 days) was “little to no impairment of alertness and no frank sedation; also recorded: did not demonstrate a difference from placebo in sedation”. The MOAA/S score (alertness/sedation; other participants at 5.0 mg and all other Cohorts) was “above 3”, the “anxiolytic effect, chronic dosing” value ([1]; once daily for fourteen days, tested 1 hr after last dose) was “anxiolytic-like in rodents after acute and sub-chronic (14 days) dosing without any loss of effect” and the “effect compared with reference anxiolytic chlordiazepoxide” value ([1]; oral) was “equivalent to what was demonstrated by the reference anxiolytic compound, chlordiazepoxide”. The “distance traveled in the open arms” value ([1]; oral, 0.1, 0.3 and 1 mg/kg) was “increased distance traveled in the open arms”.

Source: patent US20260345621A1, “GABAA RECEPTOR MODULATORS AND USES THEREOF” (Engrail Therapeutics, Inc., priority 2022, published 2026)
